Reference: patent publication US8772480B2, “Inhibitors of PI3 kinase and/or mTOR” (priority 2009, dated 2014)

Key:
[1] = biological target: ProfilerPro Kinase Selectivity Assay Kit kinases (Homo sapiens, UniProt P27361); format: biochemical; conditions: ERK1; 1 μM compound concentration
[2] = biological target: ProfilerPro Kinase Selectivity Assay Kit kinases (Homo sapiens, UniProt Q13177); format: biochemical; conditions: PAK2; 1 μM compound concentration
[3] = biological target: ProfilerPro Kinase Selectivity Assay Kit kinases (Homo sapiens, UniProt O00141); format: biochemical; conditions: SGK1; 1 μM compound concentration
[4] = biological target: ProfilerPro Kinase Selectivity Assay Kit kinases (Homo sapiens, UniProt O95819); format: biochemical; conditions: HGK; 1 μM compound concentration
[5] = biological target: ProfilerPro Kinase Selectivity Assay Kit kinases (Homo sapiens, UniProt O14965); format: biochemical; conditions: AURORA A; 1 μM compound concentration
[6] = biological target: ProfilerPro Kinase Selectivity Assay Kit kinases (Homo sapiens, UniProt Q06187); format: biochemical; conditions: BTK; 1 μM compound concentration
[7] = biological target: ProfilerPro Kinase Selectivity Assay Kit kinases (Homo sapiens, UniProt Q05513); format: biochemical; conditions: PKC zeta; 1 μM compound concentration
[8] = biological target: ProfilerPro Kinase Selectivity Assay Kit kinases (Homo sapiens, UniProt Q9BZL6); format: biochemical; conditions: PKD2; 1 μM compound concentration
[9] = biological target: ProfilerPro Kinase Selectivity Assay Kit kinases (Homo sapiens, UniProt O14757); format: biochemical; conditions: CHK1; 1 μM compound concentration
[10] = biological target: ProfilerPro Kinase Selectivity Assay Kit kinases (Homo sapiens, UniProt P17612); format: biochemical; conditions: PKA alpha; 1 μM compound concentration
[11] = biological target: ProfilerPro Kinase Selectivity Assay Kit kinases (Homo sapiens, UniProt O96017); format: biochemical; conditions: CHK2; 1 μM compound concentration
[12] = biological target: ProfilerPro Kinase Selectivity Assay Kit kinases (Homo sapiens, UniProt P43405); format: biochemical; conditions: SYK; 1 μM compound concentration
[13] = biological target: ProfilerPro Kinase Selectivity Assay Kit kinases (Homo sapiens, UniProt P08069); format: biochemical; conditions: IGF1R; 1 μM compound concentration
[14] = test system: phosphorylation of Akt at Serine 473 in U87 MG cells; test: cells; conditions: Homo sapiens, U-87 MG, 2 h, read-out: U87Cell IC50, pAkt (Ser 473), U87 MG cells, two hours with compound
[15] = biological target: human mutant B-raf (HuBraf V600E) (Homo sapiens (Human), UniProt P15056, V600E); conditions: at 10 μM compound concentration; POC = 100 − percent inhibition
PI3Kα = PI3Kα (Homo sapiens (Human), UniProt P42336); conditions: read-out: PI3Kα AlphaScreen ® Ki
Sequence of PI3Kα (P42336 whole entry): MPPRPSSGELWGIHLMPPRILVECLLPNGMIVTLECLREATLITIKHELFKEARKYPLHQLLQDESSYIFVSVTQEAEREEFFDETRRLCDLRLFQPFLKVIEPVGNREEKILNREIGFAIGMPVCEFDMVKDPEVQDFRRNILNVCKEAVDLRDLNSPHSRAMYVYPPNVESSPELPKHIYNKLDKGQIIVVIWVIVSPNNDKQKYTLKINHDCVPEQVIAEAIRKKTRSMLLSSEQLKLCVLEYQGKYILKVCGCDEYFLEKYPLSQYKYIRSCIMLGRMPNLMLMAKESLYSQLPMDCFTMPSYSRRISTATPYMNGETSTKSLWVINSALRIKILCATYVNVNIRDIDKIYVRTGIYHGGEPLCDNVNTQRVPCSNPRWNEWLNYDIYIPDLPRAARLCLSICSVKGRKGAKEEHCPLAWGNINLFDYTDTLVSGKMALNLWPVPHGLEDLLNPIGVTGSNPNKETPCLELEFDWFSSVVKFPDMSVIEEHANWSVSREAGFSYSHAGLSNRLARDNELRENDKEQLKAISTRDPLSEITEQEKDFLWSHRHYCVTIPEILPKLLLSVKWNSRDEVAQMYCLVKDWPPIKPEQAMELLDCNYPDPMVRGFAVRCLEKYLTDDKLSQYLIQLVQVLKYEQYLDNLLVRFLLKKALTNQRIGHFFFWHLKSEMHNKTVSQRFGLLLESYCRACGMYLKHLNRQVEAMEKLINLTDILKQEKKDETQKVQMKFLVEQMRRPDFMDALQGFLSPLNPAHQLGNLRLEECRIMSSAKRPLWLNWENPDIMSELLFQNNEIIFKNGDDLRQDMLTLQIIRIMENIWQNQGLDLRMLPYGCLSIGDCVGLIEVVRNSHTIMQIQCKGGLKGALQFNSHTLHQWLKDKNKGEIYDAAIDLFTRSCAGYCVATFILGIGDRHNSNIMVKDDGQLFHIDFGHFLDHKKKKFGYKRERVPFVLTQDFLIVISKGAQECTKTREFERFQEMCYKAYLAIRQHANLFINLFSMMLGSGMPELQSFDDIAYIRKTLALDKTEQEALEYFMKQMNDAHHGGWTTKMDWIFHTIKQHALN
Sequence of PI3Kα (P27986 whole entry partner): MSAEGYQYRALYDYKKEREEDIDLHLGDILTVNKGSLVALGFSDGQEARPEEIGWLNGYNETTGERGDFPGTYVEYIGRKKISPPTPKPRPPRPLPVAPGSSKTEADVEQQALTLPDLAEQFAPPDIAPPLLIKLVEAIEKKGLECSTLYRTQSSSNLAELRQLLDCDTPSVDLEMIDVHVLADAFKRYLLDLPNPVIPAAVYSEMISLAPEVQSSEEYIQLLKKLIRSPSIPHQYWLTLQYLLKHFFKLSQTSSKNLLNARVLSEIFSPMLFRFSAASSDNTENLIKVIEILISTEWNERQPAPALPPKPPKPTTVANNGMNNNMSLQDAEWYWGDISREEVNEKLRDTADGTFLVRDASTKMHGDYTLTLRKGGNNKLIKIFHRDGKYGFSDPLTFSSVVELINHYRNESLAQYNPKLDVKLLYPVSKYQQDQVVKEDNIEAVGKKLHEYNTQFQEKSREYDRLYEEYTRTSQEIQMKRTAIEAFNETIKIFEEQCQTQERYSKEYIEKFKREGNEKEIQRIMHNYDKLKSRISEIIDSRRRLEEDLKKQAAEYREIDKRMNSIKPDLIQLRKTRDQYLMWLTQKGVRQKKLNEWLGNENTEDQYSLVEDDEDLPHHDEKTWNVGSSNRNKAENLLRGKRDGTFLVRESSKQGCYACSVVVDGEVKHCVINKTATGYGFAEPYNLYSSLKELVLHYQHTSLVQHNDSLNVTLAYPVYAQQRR

Sequence of ProfilerPro Kinase Selectivity Assay Kit kinases (Homo sapiens, UniProt Q06187) (Q06187 2-659 limits assumed): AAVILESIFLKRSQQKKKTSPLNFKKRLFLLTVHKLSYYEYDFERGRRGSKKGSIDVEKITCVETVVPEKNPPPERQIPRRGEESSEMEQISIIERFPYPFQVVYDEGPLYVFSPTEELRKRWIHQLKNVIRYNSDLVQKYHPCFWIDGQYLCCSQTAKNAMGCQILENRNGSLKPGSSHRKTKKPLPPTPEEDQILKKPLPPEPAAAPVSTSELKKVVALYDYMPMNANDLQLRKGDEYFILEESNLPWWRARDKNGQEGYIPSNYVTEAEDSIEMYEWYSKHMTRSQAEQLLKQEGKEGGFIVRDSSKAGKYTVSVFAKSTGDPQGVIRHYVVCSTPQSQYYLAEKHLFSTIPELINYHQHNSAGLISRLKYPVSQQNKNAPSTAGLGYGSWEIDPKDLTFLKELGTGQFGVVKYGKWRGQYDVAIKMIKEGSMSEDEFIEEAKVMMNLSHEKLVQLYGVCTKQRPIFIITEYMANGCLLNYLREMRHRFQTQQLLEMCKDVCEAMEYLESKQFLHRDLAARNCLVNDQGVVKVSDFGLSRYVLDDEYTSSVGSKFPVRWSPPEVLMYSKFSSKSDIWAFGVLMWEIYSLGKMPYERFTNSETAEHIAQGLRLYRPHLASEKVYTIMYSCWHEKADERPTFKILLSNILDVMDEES
Sequence of human mutant B-raf (HuBraf V600E) (P15056 whole entry V600E): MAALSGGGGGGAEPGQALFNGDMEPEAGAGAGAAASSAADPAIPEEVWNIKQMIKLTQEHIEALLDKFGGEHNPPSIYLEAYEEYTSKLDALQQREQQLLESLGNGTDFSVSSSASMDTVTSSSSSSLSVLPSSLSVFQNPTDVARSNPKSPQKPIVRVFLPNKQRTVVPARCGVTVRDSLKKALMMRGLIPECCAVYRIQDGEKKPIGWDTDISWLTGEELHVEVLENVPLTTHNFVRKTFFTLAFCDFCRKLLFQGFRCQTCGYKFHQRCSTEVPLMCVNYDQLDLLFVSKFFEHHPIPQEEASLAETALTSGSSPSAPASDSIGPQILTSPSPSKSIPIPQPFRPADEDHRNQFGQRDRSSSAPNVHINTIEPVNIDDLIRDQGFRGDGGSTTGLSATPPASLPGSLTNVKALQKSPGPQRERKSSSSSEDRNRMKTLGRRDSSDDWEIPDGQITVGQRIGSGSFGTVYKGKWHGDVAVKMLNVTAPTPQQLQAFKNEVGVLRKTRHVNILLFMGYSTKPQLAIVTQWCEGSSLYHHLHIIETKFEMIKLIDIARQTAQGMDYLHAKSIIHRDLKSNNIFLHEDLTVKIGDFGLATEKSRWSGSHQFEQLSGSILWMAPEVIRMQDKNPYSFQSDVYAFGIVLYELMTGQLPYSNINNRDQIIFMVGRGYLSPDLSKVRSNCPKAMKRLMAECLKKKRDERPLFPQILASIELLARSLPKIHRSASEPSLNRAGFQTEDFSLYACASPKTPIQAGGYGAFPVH
Sequence of ProfilerPro Kinase Selectivity Assay Kit kinases (Homo sapiens, UniProt O95819) (O95819 2-1239 limits assumed): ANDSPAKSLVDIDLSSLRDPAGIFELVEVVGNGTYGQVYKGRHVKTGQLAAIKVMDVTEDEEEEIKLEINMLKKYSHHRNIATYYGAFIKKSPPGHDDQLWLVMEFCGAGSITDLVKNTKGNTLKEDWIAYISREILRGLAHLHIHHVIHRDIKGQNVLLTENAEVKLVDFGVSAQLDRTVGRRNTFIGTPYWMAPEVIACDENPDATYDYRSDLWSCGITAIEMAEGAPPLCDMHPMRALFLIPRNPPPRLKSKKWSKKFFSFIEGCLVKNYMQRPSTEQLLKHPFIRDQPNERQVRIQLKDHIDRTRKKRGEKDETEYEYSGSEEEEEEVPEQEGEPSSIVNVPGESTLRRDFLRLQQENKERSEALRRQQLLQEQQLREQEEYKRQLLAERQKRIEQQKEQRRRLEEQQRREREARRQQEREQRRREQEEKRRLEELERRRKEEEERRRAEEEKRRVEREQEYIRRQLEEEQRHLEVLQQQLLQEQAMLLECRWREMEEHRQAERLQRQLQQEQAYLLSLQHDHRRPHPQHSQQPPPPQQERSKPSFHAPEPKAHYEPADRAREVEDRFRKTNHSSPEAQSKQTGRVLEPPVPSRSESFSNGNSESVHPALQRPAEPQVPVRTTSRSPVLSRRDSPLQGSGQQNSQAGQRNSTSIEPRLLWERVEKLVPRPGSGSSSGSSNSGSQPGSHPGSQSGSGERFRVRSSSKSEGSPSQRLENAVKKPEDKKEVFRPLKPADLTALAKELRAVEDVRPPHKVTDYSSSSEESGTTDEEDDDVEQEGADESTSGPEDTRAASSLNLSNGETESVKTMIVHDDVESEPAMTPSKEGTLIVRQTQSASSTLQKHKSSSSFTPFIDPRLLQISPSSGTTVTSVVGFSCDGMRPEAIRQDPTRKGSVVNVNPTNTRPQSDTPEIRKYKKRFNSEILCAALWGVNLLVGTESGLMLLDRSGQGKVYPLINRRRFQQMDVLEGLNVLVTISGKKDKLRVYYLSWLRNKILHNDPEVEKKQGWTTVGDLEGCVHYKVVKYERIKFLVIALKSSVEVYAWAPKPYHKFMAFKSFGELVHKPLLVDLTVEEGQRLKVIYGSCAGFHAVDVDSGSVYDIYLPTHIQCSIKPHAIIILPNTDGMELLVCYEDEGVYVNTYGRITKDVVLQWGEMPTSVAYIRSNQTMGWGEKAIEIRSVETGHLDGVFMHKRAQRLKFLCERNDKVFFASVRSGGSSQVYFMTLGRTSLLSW
Sequence of ProfilerPro Kinase Selectivity Assay Kit kinases (Homo sapiens, UniProt Q13177) (Q13177 2-524 limits assumed): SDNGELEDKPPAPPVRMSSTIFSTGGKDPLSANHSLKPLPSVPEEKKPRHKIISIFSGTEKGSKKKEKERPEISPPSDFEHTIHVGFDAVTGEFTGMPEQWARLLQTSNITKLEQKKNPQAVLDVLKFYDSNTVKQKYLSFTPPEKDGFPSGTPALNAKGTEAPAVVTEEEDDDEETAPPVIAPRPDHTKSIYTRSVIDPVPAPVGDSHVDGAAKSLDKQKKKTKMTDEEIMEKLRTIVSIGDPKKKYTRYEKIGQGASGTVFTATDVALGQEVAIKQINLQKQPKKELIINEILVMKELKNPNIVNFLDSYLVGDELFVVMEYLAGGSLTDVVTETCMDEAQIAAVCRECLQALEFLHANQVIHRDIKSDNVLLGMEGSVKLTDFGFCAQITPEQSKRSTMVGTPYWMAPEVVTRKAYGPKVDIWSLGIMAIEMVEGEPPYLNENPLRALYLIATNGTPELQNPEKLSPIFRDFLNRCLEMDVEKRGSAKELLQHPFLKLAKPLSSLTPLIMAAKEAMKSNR

Row | Compound | POC (Percent of control) ERK1 [1] [POC] | POC (Percent of control) PAK2 [2] [POC] | POC (Percent of control) SGK1 [3] [POC] | POC (Percent of control) HGK [4] [POC] | POC (Percent of control) AURORA A [5] [POC] | POC (Percent of control) BTK [6] [POC] | POC (Percent of control) PKC zeta [7] [POC] | POC (Percent of control) PKD2 [8] [POC] | POC (Percent of control) CHK1 [9] [POC] | POC (Percent of control) PKA alpha [10] [POC] | POC (Percent of control) CHK2 [11] [POC] | POC (Percent of control) SYK [12] [POC] | POC (Percent of control) IGF1R [13] [POC] | IC50 [14] [nM] | Mutant B-raf HTRF Assay POC Mean n = 2 [15] | Ki (PI3Kα) [nM]
1 | Cc1nc(N)nc(-c2cc(CN3CCN(S(C)(=O)=O)CC3)cnc2Nc2cccc(O)c2)n1 [Example 30, 3-(3-(4-Amino-6-Methyl-1,3,5-Triazin-2-yl)-5-((4-(Methyl Sulfonyl)Piperazin-1-yl)Methyl)Pyridin-2-Ylamino)Phenol] | 93 | 105 | 93 | 96 | 100 | 97 | 110 | 98 | 96 | 100 | 106 | 106 | 80 | 30 | 92% of Control (POC) | 8
2 | COc1ccc(Nc2ncc(CN3CCN(C(C)=O)CC3)cc2-c2nc(C)nc3[nH]cnc23)cn1 [Example 89, 1-(4-((6-(6-methoxypyridin-3-ylamino)-5-(2-methyl-9H-purin-6-yl)pyridin-3-yl)methyl)piperazin-1-yl)ethanone] | 100 | 97 | 92 | 95 | 108 | 102 | 109 | 100 | 99 | 99 | 97 | 80 | 98 | 146 | 102% of Control (POC) | 42
3 | CCc1cnc(Nc2ccc(OC)nc2)c(-c2nc(C)nc3[nH]cnc23)c1 [Example 74, 5-ethyl-N-(6-methoxypyridin-3-yl)-3-(2-methyl-9H-purin-6-yl)pyridin-2-amine] | 99 | 94 | 108 | 94 | 102 | 99 | 94 | 99 | 101 | 102 | 98 | 97 | 93 | 89 | 111% of Control (POC) | 11
4 | Cc1cnc(Nc2cccc3[nH]ccc23)c(-c2nc(C)nc(N)n2)c1 [Example 46, N-(3-(4-Amino-6-Methyl-1,3,5-Triazin-2-yl)-5-Methylpyridin-2-yl)-1H-Indol-4-Amine] | 92 | 95 | 89 | 104 | 31 | 98 | 198 | 106 | 98 | 102 | 101 | 104 | 78 | 79 | 68% of Control (POC) | 130
5 | c1cnc(Nc2cccc3[nH]ccc23)c(-c2ncnc3[nH]cnc23)c1 [Example 19, N-(3-(9H-Purin-6-yl)Pyridin-2-yl)-1H-Indol-4-Amine] | 93 | 105 | 88 | 50 | 24 | 75 | 98 | 97 | 83 | 70 | 18 | 15 | 94 | 2370 | 7% of Control (POC) | 5620
6 | COc1ccc(Nc2ncccc2-c2ncnc3[nH]cnc23)cn1 [Example 20, N-(6-Methoxypyridin-3-yl)-3-(9H-Purin-6-yl)Pyridin-2-Amine] | 96 | 103 | 95 | 94 | 96 | 98 | 99 | 100 | 104 | 97 | 103 | 107 | 93 | – | 72% of Control (POC) | –

Second part, the compound after the results:

Row | POC (Percent of control) ERK1 [1] [POC] | POC (Percent of control) PAK2 [2] [POC] | POC (Percent of control) SGK1 [3] [POC] | POC (Percent of control) HGK [4] [POC] | POC (Percent of control) AURORA A [5] [POC] | POC (Percent of control) BTK [6] [POC] | POC (Percent of control) PKC zeta [7] [POC] | POC (Percent of control) PKD2 [8] [POC] | POC (Percent of control) CHK1 [9] [POC] | POC (Percent of control) PKA alpha [10] [POC] | POC (Percent of control) CHK2 [11] [POC] | POC (Percent of control) SYK [12] [POC] | POC (Percent of control) IGF1R [13] [POC] | IC50 [14] [nM] | Mutant B-raf HTRF Assay POC Mean n = 2 [15] | Ki (PI3Kα) [nM] | Compound
7 | 100 | 99 | 85 | 91 | 78 | 99 | 99 | 102 | 103 | 84 | 97 | 83 | 41 | – | 110% of Control (POC) | 130 | Cc1nc(N)cc(-c2cccnc2Nc2cccc3[nH]ncc23)n1 [Example 27, N-(3-(6-Amino-2-Methylpyrimidin-4-yl)Pyridin-2-yl)-1H-Indazol-4-Amine]
8 | 103 | 99 | 89 | 91 | 85 | 93 | 102 | 113 | 92 | 16 | 99 | 95 | 82 | 197 | 91% of Control (POC) | 36 | Cc1cnc(Nc2cccc3[nH]ncc23)c(-c2nc(C)nc(N)n2)c1 [Example 47, N-(3-(4-Amino-6-Methyl-1,3,5-Triazin-2-yl)-5-Methylpyridine-2-yl)-1H-Indazol-4-Amine]
9 | 104 | 96 | 97 | 92 | 84 | 99 | 102 | 97 | 97 | 97 | 94 | 63 | 64 | – | 3% of Control (POC) | 22600 | c1cnc(Nc2cccc3[nH]ncc23)c(-c2ncnc3[nH]cnc23)c1 [Example 18, N-(3-(9H-Purin-6-yl)Pyridin-2-yl)-1H-Indazol-4-Amine]
